# Measured values from PMC10861593, “Kisspeptin-10 binding to Gpr54 in osteoclasts prevents bone loss by activating Dusp18-mediated dephosphorylation of Src” (Nature Communications, 2024).
# Assays:
# OVX mice = test: OVX-induced bone loss model (and sham-operated mice); format: in vivo, mouse; conditions: in vivo, OVX-induced bone loss model
# Source text: Fig. 7 Kp-10 ameliorated OVX-induced bone loss. a, c Representative micro-CT images of femoral trabecular bone (a) and cortical bone (c). Female C57 mice treated with vehicle (Sham) or 50 nmol/kg (DSS)*6-Kp-10, ovariectomized mice (OVX) treated with vehicle or 50nmol/kg (DSS)*6-Kp-10 twice one week by intraperitoneal injection (n = 6 per group). Scale bar, 500 µm. b, d Parameter analysis of femurs from the mice above. BMD bone mineral density, BV/TV bone volume as a fraction of total bone volume, Tb.Th trabecular thickness, Tb.N trabecular number, Tb.Sp trabecular separation. e Representative TRAP staining images of femurs from Fig. 7a. f Histomorphometry analysis of the femurs from Fig. 7a. Oc.S/BS osteoclast surface per bone surface, N.Oc/B.Pm osteoclast bone surface density, ES/BS eroded surface per bone surface. Data represent means ± SEM. P values were determined by one-way ANOVA analysis (b, d, f). Representative results were obtained from at least three independent experiments. Source data are provided as a Source Data file.
# 3D micro-CT analyses were performed as previously described. We scanned the femur using in vitro X-ray microtomography (Skyscan 1272, Bruker micro CT) at a pixel size of 9 µm, and analyzed the results according to the manufacturer’s instructions. Region-of-interest (ROI) was defined from 10 to 110 image slices, where the growth plate slice was defined as 0 mm. The contrast was defined from 68–255; 3D analysis, BMD, and 3D models were analyzed using CTAn software (Bruker micro CT). 3D models were adjusted in CT Vox software (Bruker micro CT).
# Bone tissue was removed of excess tissues and fixed with 4% formalin, decalcified with 0.5 M EDTA for 10–14 days, embedded with paraffin, sectioned, and stained using the TRAP staining kit (Sigma-Aldrich, 387A-1KT). The third lumbar spine vertebrae (L3) were fixed with 4% formalin, sectioned, and subjected to Von Kossa staining as described previously[60],[61]. For double calcian labeling assay, 4−5 week-old mice were administrated calcian (30 μg/mL) through intraperitoneal injection for the first time and the second time after 10 days. The third lumbar spine vertebrae (L3) were fixed with 4% formalin, sectioned, and subjected to Goldner’s Masson trichrome staining, or acquisition of fluorescence images. Histomorphometric measurements were made using the OsteoMeasure Analysis System (Osteometrics, Atlanta, GA, USA) according to standard criteria.
# For animal studies in vivo, mice were randomized for weight. For the OVX-induced bone loss model, 2-month-old female C57BL/6 mice were sham-operated (sham) or ovariectomized (OVX) and randomly divided into indicated groups. Vehicle, Kp-10 or (DSS)*6-Kp-10 was injected into the tail vein twice per week. After two months of treatment, the femurs and the L3 lumbrae were isolated for micro-CT or histomorphometric analysis. 3D micro-CT analyses were performed according to a standard protocol. BMD and bone volume were analyzed by CT-analysis software (CTAn, Bruker micro CT, Kontich, Belgium) and images were reconstituted by CT-volume software (CTvol, skyscan, CTAn, Bruker micro CT, Kontich, Belgium).
# Supplementary Fig. 16 a Representative image of Von Kossa staining of sham-operated female C57 mice treated with vehicle (Sham, n=4), ovariectomized mice (OVX, n=3), and OVX mice treatment with 1 nmol/kg Kp-10 (n=6),10 nmol/kg Kp-10 (n=6),1 nmol/kg (DSS)*6-Kp-10 (n=5) or 10 nmol/kg (DSS)*6-Kp-10 (n=6) twice one week by intraperitoneal injection for two months. […]
# [1] = test system: phosphatases co-immunoprecipitated with Gpr54; test: mass spectrometry of anti-Gpr54 IP; format: cell-based, mouse; conditions: RAW264.7 cells, Kp-10 20 min
# Experimental: For mass spectrometry (MS) analysis, anti-Gpr54 IP was performed with the whole-cell lysates derived from two 10-cm dishes of RAW264.7 cells with or without Kp-10 treatment for 20 min. The protein complexes after Co-IP were extensively washed with PBS, followed by on-bead digestion. Mass spectra were acquired on a Q-Exactive mass spectrometer (Thermo Scientific, Bremen, Germany). The raw mass spectrometry data were searched against the mouse IPI databases (version 3.86, released on June 28, 2012) using the Proteome Discoverer software suite (Thermo Scientific, San Jose, USA) utilizing a label-free quantification feature. The mass spectrometry proteomics data have been deposited to the ProteomeXchange Consortium via the PRIDE[52] partner repository with the dataset identifier PXD038433.
substance,measurement,setting,value
Kisspeptin-10 [Kp-10],bone loss / bone protection in vivo (summary statement),OVX mice,abrogated bone loss by suppressing osteoclast activity in vivo
same,phosphatases increasing after Kp-10 stimulation,[1],"three increasing phosphatases including DUSP18, PTPN6 and PPP1CA were identified"
